Earlier results as cited in patent publication US10758465B2, “Synephrine compositions” (Follea International, priority 2017, dated 2020).

Tests used:
[1] = system: alpha2-adrenoceptors; settings: postjunctional alpha2-adrenoceptors
[2] = system: alpha1-adrenoceptors; settings: postjunctional alpha1-adrenoceptors

In the case of `CNC[C@@H](O)c1ccc(O)cc1` [S-(+)-synephrine], the “potency relative to the (−) form” value [1] is listed as “one to two orders of magnitude less” and the “potency relative to the (−) form” value [2] is listed as “one to two orders of magnitude less”.
